The text below walks through data of ChEMBL document CHEMBL1131862, “Synthesis and anti-HIV activity of arylpiperazinyl fluoroquinolones: a new class of anti-HIV agents” (Bioorg Med Chem Lett, 1999).

Test [1] concerns Human immunodeficiency virus 1. Briefly: Anti-HIV activity against HIV-1 IIIB chronically infected Molt-4 cells. The test is classed as functional, organism-based. Particulars: Human immunodeficiency virus 1, MOLT-4; call rule not given here.
Test [2] relates to Human immunodeficiency virus 1. The test can be described thus: Cytotoxicity to HIV-1 IIIB chronically infected Molt-4 cells assayed using tetrazolium based colorimetric assay. Format: functional. As to conditions: Human immunodeficiency virus 1, MOLT-4.
Test [3] deals with MOLT-4. Briefly: Anti-HIV activity against HIV-1 IIIB chronically infected Molt-4 cells; Not active. Format: functional, cell-based, Homo sapiens.

The IC50 is the point on the concentration scale where inhibition reaches its midpoint. Higher therefore signals weaker potency in that assay. A word on the CC50: it is the concentration that lowers cell viability or growth by half. In turn, `O=C(O)c1cn(C2CC2)c2c(OC(F)F)c(N3CCNCC3)c(F)cc2c1=O` gave a half-inhibitory concentration (IC50) in test [1] of over 60 µM. The same molecule displayed a 50% cytotoxic concentration (CC50) in test [2] of over 60 µM.
Regarding `COc1ccccc1N1CCN(c2c(F)cc3c(=O)c(C(=O)O)cn(CCO)c3c2OC(F)F)CC1`, the IC50 in test [1] was found to be 0.26 µM. Moreover, the midpoint of cytotoxicity in test [2], the CC50, lay at 26 µM.
With `COc1ccccc1N1CCN(c2c(F)cc3c(=O)c(C(=O)O)cn(C(C)C)c3c2OC(F)F)CC1`, the 50% inhibitory concentration (IC50) in test [1] stood at 0.1 µM. The CC50 in test [2] was 8.9 µM.
In turn, `CCn1cc(C(=O)O)c(=O)c2cc(F)c(N3CCN(c4ccccc4OC)CC3)c(OC(F)F)c21` displayed a 50% inhibitory concentration (IC50) in test [1] of 0.094 µM. Further, the CC50 in test [2] is 13 µM.
In turn, `CNn1cc(C(=O)O)c(=O)c2cc(F)c(N3CCN(c4ncccn4)CC3)c(OC(F)F)c21` returned a concentration for half-maximal inhibition (IC50) in test [1] of 0.5 µM. In test [2], this molecule came in with a CC50 of over 60 µM.
Regarding `CC(C)n1cc(C(=O)O)c(=O)c2cc(F)c(N3CCN(c4ncccn4)CC3)c(OC(F)F)c21`, the concentration for half-maximal inhibition (IC50) in test [1] turned out to be 0.23 µM. In test [2], this molecule displayed a half-maximal cytotoxic concentration (CC50) of 31 µM.
Taken in the same sequence, the figures for `CC1COc2c(N3CCN(c4ccccn4)CC3)c(F)cc3c(=O)c(C(=O)O)cn1c23` (stereo not given) were 3.7 µM and 39 µM.
Molecule `O=C(O)c1cn(C2CC2)c2c(OC(F)F)c(N3CCN(c4ccccn4)CC3)c(F)cc2c1=O` registered an IC50 in test [1] of 0.25 µM. In addition, the 50% cytotoxic concentration (CC50) in test [2] was determined as 15 µM.
`COc1ccccc1N1CCN(c2c(F)cc3c(=O)c(C(=O)O)cn(CCN(C)C)c3c2OC(F)F)CC1` had an IC50 in test [1] of 5.6 µM. The half-maximal cytotoxic concentration (CC50) in test [2] is over 55 µM.
For `Cn1cc(C(=O)O)c(=O)c2cc(F)c(N3CCN(c4ncccn4)CC3)c(OC(F)F)c21`, in test [1], the IC50 is 0.14 µM. For the same molecule, the cytotoxic concentration (CC50) in test [2] came to 38 µM.
`COc1cccc(N2CCN(c3c(F)cc4c(=O)c(C(=O)O)cn(C5CC5)c4c3OC(F)F)CC2)c1`: in test [1], it took 0.7 µM to reach half-maximal inhibition (IC50). Moreover, the CC50 in test [2] stood at 22 µM.
Take `O=C(O)c1cn(C2CC2)c2c(OC(F)F)c(N3CCN(c4ncccn4)CC3)c(F)cc2c1=O`: the midpoint of inhibition in test [1], the IC50, lay at 0.97 µM. Further, in test [2], the half-maximal cytotoxic concentration (CC50) is over 40 µM.
Consider `O=C(O)c1cn(C2CC2)c2c(OC(F)F)c(N3CCN(Cc4ccccc4)CC3)c(F)cc2c1=O`, for which, in test [3], the half-inhibitory concentration (IC50) entry is “Not Active”. Moreover, the CC50 in test [2] was determined as 23 µM.
`O=C(O)c1cn(C2CC2)c2c(OC(F)F)c(N3CCN(c4ccccc4)CC3)c(F)cc2c1=O` displayed a 50% inhibitory concentration (IC50) in test [1] of 0.063 µM. Besides, the half-maximal cytotoxic concentration (CC50) in test [2] was 8.4 µM.
Turning to `COc1ccccc1N1CCN(c2c(F)cc3c(=O)c(C(=O)O)cn(C)c3c2OC(F)F)CC1`, in test [1], inhibition was half-maximal at 0.14 µM (IC50). The midpoint of cytotoxicity in test [2], the CC50, lay at 13 µM.
Consider `O=C(O)c1cn(C2CC2)c2c(F)c(N3CCN(c4ccccn4)CC3)c(F)cc2c1=O`, for which the midpoint of inhibition in test [1], the IC50, lay at 50 µM. In test [2], this molecule displayed a CC50 of over 50 µM.
`CNn1cc(C(=O)O)c(=O)c2cc(F)c(N3CCN(c4ccccc4OC)CC3)c(OC(F)F)c21` returned an IC50 in test [1] of 0.35 µM. In test [2], this molecule had a CC50 of 19 µM.
`O=C(O)c1cn(C2CC2)c2c(OC(F)F)c(N3CCN(c4ccc(F)cc4)CC3)c(F)cc2c1=O`: in test [1], the IC50 is 0.059 µM. Also, the midpoint of cytotoxicity in test [2], the CC50, lay at 5.7 µM.
`COc1ccccc1N1CCN(c2c(F)cc3c(=O)c(C(=O)O)cn(CCF)c3c2OC(F)F)CC1`: in test [1], it took 0.27 µM to reach half-maximal inhibition (IC50). The same molecule came in with a CC50 in test [2] of 22 µM.
Taken in the same sequence, the figures for `CN1CCN(c2c(F)cc3c(=O)c(C(=O)O)cn(C4CC4)c3c2OC(F)F)CC1` were over 60 µM and over 60 µM.
In the case of `COc1ccc(N2CCN(c3c(F)cc4c(=O)c(C(=O)O)cn(C5CC5)c4c3OC(F)F)CC2)cc1`, 0.6 µM corresponded to half-maximal inhibition in test [1] (IC50). This molecule also had a CC50 in test [2] of 17 µM.
`O=C(O)c1cn(CCO)c2c(OC(F)F)c(N3CCN(c4ncccn4)CC3)c(F)cc2c1=O`: half-maximal inhibition in test [1] (IC50) required 0.79 µM. The CC50 in test [2] was over 60 µM.
As to `O=C(O)c1cn(C2CC2)c2c(OC(F)F)c(N3CCN(c4ccc(Cl)cc4)CC3)c(F)cc2c1=O`, in test [1], the IC50 came to 0.48 µM. Also, in test [2], the CC50 worked out at 5.8 µM.
Consider `COc1ccccc1N1CCN(c2c(F)cc3c(=O)c(C(=O)O)cn(CC(=O)O)c3c2OC(F)F)CC1`, for which the half-inhibitory concentration (IC50) in test [1] is over 55 µM. In addition, in test [2], the CC50 is over 55 µM.
As for `COc1c(N2CCN(c3ccccn3)CC2)c(F)cc2c(=O)c(C(=O)O)cn(C3CC3)c12`, the half-maximal inhibitory concentration (IC50) in test [1] is 1.8 µM. The same molecule came in with a CC50 in test [2] of 26 µM.
In turn, `COc1ccccc1N1CCN(c2c(F)cc3c(=O)c(C(=O)O)cn(CCOC(C)=O)c3c2OC(F)F)CC1` yielded an IC50 in test [1] of 0.1 µM. The molecule further returned a CC50 in test [2] of 11 µM.
In test [1], `O=C(O)c1cn2c3c(c(N4CCN(c5ccccn5)CC4)c(F)cc3c1=O)OCC2CF` (stereo not given) showed an IC50 of 1.7 µM. In test [2], this molecule had a CC50 of over 60 µM.
Taken in the same sequence, the figures for `COc1ccccc1N1CCN(c2c(F)cc3c(=O)c(C(=O)O)cn(C4CC4)c3c2OC(F)F)CC1` were 0.11 µM and 9.9 µM.
The molecule `O=C(O)c1cn(CCF)c2c(OC(F)F)c(N3CCN(c4ncccn4)CC3)c(F)cc2c1=O` gave a 50% inhibitory concentration (IC50) in test [1] of 0.93 µM. Further, the CC50 in test [2] was over 60 µM.
In turn, `CCn1cc(C(=O)O)c(=O)c2cc(F)c(N3CCN(c4ncccn4)CC3)c(OC(F)F)c21` yielded an IC50 in test [1] of 0.41 µM. In addition, in test [2], half-maximal cytotoxicity (CC50) was put at 28 µM.
